Source: patent US20240247080A1, “GLP1/GIP/NPY2 RECEPTOR TRIPLE AGONISTS” (Boehringer Ingelheim International GmbH, priority 2022, published 2024)
Read-outs that look alike come from different tables or passages of the source. Starred links: 1 amine or outer side, 2 acyl side, 3 side chain; linkers in the order of their positions; H or OH if unused. Non-standard residues stand in square brackets, D forms with d. Groups on a side chain read outwards from the residue. *: point of attachment. C20 diacid = O=C(O)CCCCCCCCCCCCCCCCCCC(=O)*; C18 diacid = O=C(O)CCCCCCCCCCCCCCCCC(=O)*; γGlu = O=C(O)[C@H](CCC(=O)[*:2])N[*:1]; εLys = N[C@@H](CCCCN[*:1])C(=O)[*:2]; NMeR = CN[C@@H](CCCNC(=N)N)C(=O)O; β3hQ = NC(=O)CC[C@H](N)CC(=O)O; Aib = CC(C)(N)C(=O)O

Experiments:
Type in all cases: cell-based
Details in all cases: CreLuc reporter gene assay
hNPY2R = target: T1, hNPY2R (Homo sapiens, UniProt P49146); assay: hNPY2R CreLuc reporter gene assay in 0.5% and 100% plasma
T1 construct: expressed in transfected cells; host or cells: HEK-293 cells carrying a CRE-luciferase reporter gene
T1 sequence (P49146 1-381): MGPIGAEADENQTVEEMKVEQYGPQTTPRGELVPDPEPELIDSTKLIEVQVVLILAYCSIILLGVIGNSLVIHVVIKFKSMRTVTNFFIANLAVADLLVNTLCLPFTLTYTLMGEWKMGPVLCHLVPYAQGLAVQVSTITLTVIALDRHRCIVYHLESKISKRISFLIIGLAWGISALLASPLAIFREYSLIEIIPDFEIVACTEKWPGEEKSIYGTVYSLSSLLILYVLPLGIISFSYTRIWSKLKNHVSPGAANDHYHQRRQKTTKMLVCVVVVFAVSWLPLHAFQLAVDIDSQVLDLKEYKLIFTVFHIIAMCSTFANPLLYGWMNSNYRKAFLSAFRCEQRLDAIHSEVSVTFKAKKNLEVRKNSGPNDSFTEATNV
How it was run: (§1)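 HEK-293 cells co-expressing GLP-1 or NPY2 receptor and CHO cells expressing GIP receptor, each carrying a CRE-driven luciferase reporter, were stimulated with peptides for 4 hours at 37 °C. Luminescence was read after Bright-Glo addition. EC50 came from 8-point, four-decade curves fitted by variable-slope non-linear regression.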

hGLP1R = target: T2, hGLP1R (Homo sapiens, UniProt P43220); assay: hGLP1R CreLuc reporter gene assay in 0.5% and 100% plasma
T2 construct: expressed in transfected cells; host or cells: HEK-293 cells carrying a CRE-luciferase reporter gene
How it was run: as §1

hGIPR = target: T3, hGIPR (Homo sapiens, UniProt P48546); assay: hGIPR CreLuc reporter gene assay in 0.5% and 100% plasma
T3 construct: expressed in transfected cells; host or cells: CHO cells carrying a CRE-luciferase reporter gene
T3 sequence (P48546 22-466): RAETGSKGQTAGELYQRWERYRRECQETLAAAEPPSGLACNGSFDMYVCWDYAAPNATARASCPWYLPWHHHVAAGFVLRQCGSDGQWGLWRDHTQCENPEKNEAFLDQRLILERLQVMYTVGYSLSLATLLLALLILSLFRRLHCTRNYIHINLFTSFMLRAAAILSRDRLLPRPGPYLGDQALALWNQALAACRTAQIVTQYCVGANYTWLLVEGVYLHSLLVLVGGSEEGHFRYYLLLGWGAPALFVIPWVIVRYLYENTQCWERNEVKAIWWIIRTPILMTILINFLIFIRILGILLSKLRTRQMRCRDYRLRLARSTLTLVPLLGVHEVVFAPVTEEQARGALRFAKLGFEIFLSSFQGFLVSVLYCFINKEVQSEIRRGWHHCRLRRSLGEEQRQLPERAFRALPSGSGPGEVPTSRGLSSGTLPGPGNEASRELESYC
How it was run: as §1

[1] = 0.5% human plasma, read-out: hNPY2R 0.5% hP
[2] = 0.5% human plasma, read-out: hGLP1R 0.5% hP
[3] = 100% human plasma, read-out: hGLP1R 100% hP
[4] = 0.5% human plasma, read-out: hGIPR 0.5% hP
[5] = 100% human plasma, read-out: hGIPR 100% hP
[6] = 100% human plasma, read-out: hNPY2R 100% hP

T2 sequence (P43220 24-463): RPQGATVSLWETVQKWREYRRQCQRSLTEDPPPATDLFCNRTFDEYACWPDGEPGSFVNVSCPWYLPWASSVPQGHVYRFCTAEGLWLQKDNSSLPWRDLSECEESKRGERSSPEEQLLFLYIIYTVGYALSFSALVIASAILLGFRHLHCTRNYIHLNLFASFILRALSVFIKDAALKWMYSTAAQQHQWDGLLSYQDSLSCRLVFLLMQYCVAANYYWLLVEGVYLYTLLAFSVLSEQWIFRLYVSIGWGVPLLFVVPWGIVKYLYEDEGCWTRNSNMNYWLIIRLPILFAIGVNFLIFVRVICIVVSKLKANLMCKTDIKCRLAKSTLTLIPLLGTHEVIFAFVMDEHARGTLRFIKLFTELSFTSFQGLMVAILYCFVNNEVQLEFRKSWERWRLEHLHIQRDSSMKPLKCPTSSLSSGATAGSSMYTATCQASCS

Substance | EC50 (hNPY2R; [1]) [nM] | EC50 (hGLP1R; [2]) [nM] | EC50 (hGLP1R; [3]) [nM] | EC50 (hGIPR; [4]) [nM] | EC50 (hGIPR; [5]) [nM] | EC50 (hNPY2R; [6]) [nM]
H-Y[Aib]EGTFTSDYSI[Aib]LEKQAQ[Aib]AFVEWLIK([εLys-γGlu-γGlu-γGlu-γGlu-γGlu-C18 diacid])GGPESGASLRHYYNWLTRQRY-NH2 [Compound 152, Y-Aib-E-G-T-F-T-S-D-Y-S-I-Aib-L-E-K-Q-A-Q-Aib-A-F-V-E-W-L-I-K(1,3)-GGPESGASLRHYYNWLTRQRY-NH2.C18DA-gGlu-gGlu-gGlu-gGlu-gGlu-eLys(1,2)] | 12.6 | 0.13 | 4.24 | 0.4 | 0.96 | 
H-Y[Aib]EGTFTSDYSI[Aib]LEKQAQ[Aib]AFVEWLIK([εLys-γGlu-γGlu-γGlu-γGlu-γGlu-C18 diacid])GGPSEPASLRHYYNWLTRQRY-NH2 [Compound 263, Y-Aib-E-G-T-F-T-S-D-Y-S-I-Aib-L-E-K-Q-A-Q-Aib-A-F-V-E-W-L-I-K(1,3)-GGPSEPASLRHYYNWLTRQRY-NH2.C18DA-gGlu-gGlu-gGlu-gGlu-gGlu-eLys(1,2)] | 15.8 | 0.32 |  | 0.12 | 1.5 | 
H-Y[Aib]EGTFTSDYSI[Aib]LEKQAQ[Aib]AFVEWLIK([εLys-γGlu-γGlu-γGlu-γGlu-γGlu-C20 diacid])GGPEEGASLRHYYNWLTRQRY-NH2 [Compound 230, Y-Aib-E-G-T-F-T-S-D-Y-S-I-Aib-L-E-K-Q-A-Q-Aib-A-F-V-E-W-L-I-K(1,3)-GGPEEGASLRHYYNWLTRQRY-NH2.C20DA-gGlu-gGlu-gGlu-gGlu-gGlu-eLys(1,2)] | 15.4 | 0.29 |  | 0.28 | 1.43 | 
H-Y[Aib]EGTFTSDYSI[Aib]LEKQAQ[Aib]AFVEWLIK([εLys-γGlu-γGlu-γGlu-γGlu-γGlu-γGlu-C20 diacid])GGPSEGASLRHYYNWLTRQ[NMeR]Y-NH2 [Compound 236, Y-Aib-E-G-T-F-T-S-D-Y-S-I-Aib-L-E-K-Q-A-Q-Aib-A-F-V-E-W-L-I-K(1,3)-G-G-P-S-E-G-A-S-L-R-H-Y-Y-N-W-L-T-R-Q-NMeR-Y-NH2.C20DA-gGlu-gGlu-gGlu-gGlu-gGlu-gGlu-eLys(1,2)] | 31 | 0.26 |  | 0.3 |  | 
H-Y[Aib]EGTFTSDYSI[Aib]LEKQAQ[Aib]AFVEWLIK([εLys-γGlu-γGlu-γGlu-γGlu-γGlu-γGlu-C20 diacid])GGPSEGASLRHYYNWLTR[β3hQ]RY-NH2 [Compound 277, Y-Aib-E-G-T-F-T-S-D-Y-S-I-Aib-L-E-K-Q-A-Q-Aib-A-F-V-E-W-L-I-K(1,3)-G-G-P-S-E-G-A-S-L-R-H-Y-Y-N-W-L-T-R-bHGln-R-Y-NH2.C20DA-gGlu-gGlu-gGlu-gGlu-gGlu-gGlu-eLys(1,2)] | > 99.9 | 0.19 |  | 0.11 | 0.68 | 
H-Y[Aib]EGTFTSDYSI[Aib]LEKQAQ[Aib]AFVEWLIK([εLys-γGlu-γGlu-γGlu-γGlu-γGlu-γGlu-C20 diacid])GGPSEGQSIRHYYNWLTRQRY-NH2 [Compound 134, Y-Aib-E-G-T-F-T-S-D-Y-S-I-Aib-L-E-K-Q-A-Q-Aib-A-F-V-E-W-L-I-K(1,3)-GGPSEGQSIRHYYNWLTRQRY-NH2.C20DA-gGlu-gGlu-gGlu-gGlu-gGlu-gGlu-eLys(1,2)] | 10.1 | 0.1 |  | 0.09 | 0.83 | 39.9
H-Y[Aib]EGTFTSDYSI[Aib]LEKQAQ[Aib]AFVEWLIK([εLys-γGlu-γGlu-γGlu-γGlu-γGlu-γGlu-C20 diacid])GGPSEGQSLRHYYNWLTRQRY-NH2 [Compound 227, Y-Aib-E-G-T-F-T-S-D-Y-S-I-Aib-L-E-K-Q-A-Q-Aib-A-F-V-E-W-L-I-K(1,3)-GGPSEGQSLRHYYNWLTRQRY-NH2.C20DA-gGlu-gGlu-gGlu-gGlu-gGlu-gGlu-eLys(1,2)] | 10.2 | 0.13 | 3.07 | 0.06 | 1.23 | 
H-Y[Aib]EGTFTSDYSI[Aib]LEKQAQ[Aib]AFVEWLIK([εLys-γGlu-γGlu-γGlu-γGlu-γGlu-γGlu-C20 diacid])GGPSEPASLRHYYNWLTRQRY-NH2 [Compound 233, Y-Aib-E-G-T-F-T-S-D-Y-S-I-Aib-L-E-K-Q-A-Q-Aib-A-F-V-E-W-L-I-K(1,3)-GGPSEPASLRHYYNWLTRQRY-NH2.C20DA-gGlu-gGlu-gGlu-gGlu-gGlu-gGlu-eLys(1,2)] | 12.6 | 0.17 | 1.7 | 0.08 | 0.75 | 
H-Y[Aib]EGTFTSDYSI[Aib]LEKQAQ[Aib]AFVEWLIK([εLys-γGlu-γGlu-γGlu-γGlu-γGlu-γGlu-C20 diacid])GGPSEPQSIRHYYNWLTRQRY-NH2 [Compound 48, Y-Aib-E-G-T-F-T-S-D-Y-S-I-Aib-L-E-K-Q-A-Q-Aib-A-F-V-E-W-L-I-K(1,3)-GGPSEPQSIRHYYNWLTRQRY-NH2.C20DA-gGlu-gGlu-gGlu-gGlu-gGlu-gGlu-eLys(1,2)] |  | 0.07 |  | 0.07 | 0.68 | 35.2
H-Y[Aib]EGTFTSDYSI[Aib]LEKQAQ[Aib]AFVEWLIK([εLys-γGlu-γGlu-γGlu-γGlu-γGlu-γGlu-C20 diacid])GGPSEYESLRHYYNWLTRQRY-NH2 [Compound 93, Y-Aib-E-G-T-F-T-S-D-Y-S-I-Aib-L-E-K-Q-A-Q-Aib-A-F-V-E-W-L-I-K(1,3)-GGPSEYESLRHYYNWLTRQRY-NH2.C20DA-gGlu-gGlu-gGlu-gGlu-gGlu-gGlu-eLys(1,2)] | 15.3 | 0.22 | 8.97 | 0.14 | 2.35 | 85.7

The remaining lines, values ahead:

EC50 (hNPY2R; [1]) [nM] | EC50 (hGLP1R; [2]) [nM] | EC50 (hGLP1R; [3]) [nM] | EC50 (hGIPR; [4]) [nM] | EC50 (hGIPR; [5]) [nM] | EC50 (hNPY2R; [6]) [nM] | Substance
 | 0.36 |  | 0.15 |  | 19.1 | H-Y[Aib]EGTFTSDYSI[Aib]LEKQAQ[Aib]AFVEWLIK([εLys-γGlu-γGlu-γGlu-γGlu-γGlu-γGlu-C20 diacid])GGPSEYVSIRHYYNWLTRQRY-NH2 [Compound 42, Y-Aib-E-G-T-F-T-S-D-Y-S-I-Aib-L-E-K-Q-A-Q-Aib-A-F-V-E-W-L-I-K(1,3)-GGPSEYVSIRHYYNWLTRQRY-NH2.C20DA-gGlu-gGlu-gGlu-gGlu-gGlu-gGlu-eLys(1,2)]
18.6 |  | 17.2 | 0.74 |  |  | H-Y[Aib]EGTFTSDYSI[Aib]LEKQAQ[Aib]AFVEWLIK([εLys-γGlu-γGlu-γGlu-γGlu-γGlu-γGlu-C20 diacid])GGPSEYVSLRHYYNWLTRQRY-NH2 [Compound 217, Y-Aib-E-G-T-F-T-S-D-Y-S-I-Aib-L-E-K-Q-A-Q-Aib-A-F-V-E-W-L-I-K(1,3)-GGPSEYVSLRHYYNWLTRQRY-NH2.C20DA-gGlu-gGlu-gGlu-gGlu-gGlu-gGlu-eLys(1,2)]
42.6 | 0.31 |  | 0.43 |  | 157 | H-Y[Aib]EGTFTSDYSI[Aib]LEKQAQ[Aib]AFVEWLIK([εLys-γGlu-γGlu-γGlu-γGlu-γGlu-γGlu-C20 diacid])GGPSSGALLRHYYNWLTRQRY-NH2 [Compound 197, Y-Aib-E-G-T-F-T-S-D-Y-S-I-Aib-L-E-K-Q-A-Q-Aib-A-F-V-E-W-L-I-K(1,3)-GGPSSGALLRHYYNWLTRQRY-NH2.C20DA-gGlu-gGlu-gGlu-gGlu-gGlu-gGlu-eLys(1,2)]
 | 0.14 |  | 0.22 |  | 45.4 | H-Y[Aib]EGTFTSDYSI[Aib]LEKQAQ[Aib]AFVEWLIK([εLys-γGlu-γGlu-γGlu-γGlu-γGlu-γGlu-C20 diacid])GGPSSGASIRHYYNWLTRQRY-NH2 [Compound 132, Y-Aib-E-G-T-F-T-S-D-Y-S-I-Aib-L-E-K-Q-A-Q-Aib-A-F-V-E-W-L-I-K(1,3)-GGPSSGASIRHYYNWLTRQRY-NH2.C20DA-gGlu-gGlu-gGlu-gGlu-gGlu-gGlu-eLys(1,2)]
54.1 | 0.19 |  | 0.28 |  |  | H-Y[Aib]EGTFTSDYSI[Aib]LEKQAQ[Aib]AFVEWLIK([εLys-γGlu-γGlu-γGlu-γGlu-γGlu-γGlu-C20 diacid])GGPSSGASLLHYYNWLTRQRY-NH2 [Compound 210, Y-Aib-E-G-T-F-T-S-D-Y-S-I-Aib-L-E-K-Q-A-Q-Aib-A-F-V-E-W-L-I-K(1,3)-GGPSSGASLLHYYNWLTRQRY-NH2.C20DA-gGlu-gGlu-gGlu-gGlu-gGlu-gGlu-eLys(1,2)]
